Data from PubChem BioAssay AID330 (DTP/NCI, 2004).
Values joined by “and” are separate entries in the source; they are usually repeats but may differ in a detail not shown here. Equal values may be shown once. Inconclusive results and toxic doses are left out. Numbered stars: 1 amine (or outer) side, 2 acyl side, 3 side chain; on linkers, the order of the positions; unused ones are H or OH. Square brackets hold non-standard residues; d marks the D form. Peptide text beside a SMILES is read from it. X21 = O=C(C1=CN(Cc2ccccc2)C=CC1N[*:1])[*:2]

Tested on: P388 leukemia ip, CD2F1 mice, survival T/C
Assay: NCI In Vivo Anticancer Drug Screen. Data for tumor model P388 Leukemia (intraperitoneal) in CD2F1 (CDF1) mice
Conditions: endpoint: median survival time, higher = longer survival
Outline: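 Mice carrying the transplanted tumor received test compound or vehicle. Survival was recorded in each group, and the value is the treated-group measurement divided by that of the vehicle-treated control group.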

[1] = dose: 60.0 mg/kg/injection, schedule: Q01DX005 (ip), vehicle: saline with Tween-80
[2] = dose: 120.0 mg/kg/injection, schedule: Q01DX005 (ip), vehicle: saline with Tween-80
[3] = dose: 50.0 mg/kg/injection, schedule: Q01DX009 (ip), vehicle: saline with Tween-80
[4] = dose: 100.0 mg/kg/injection, schedule: Q01DX009 (ip), vehicle: saline with Tween-80
[5] = dose: 200.0 mg/kg/injection, schedule: Q01DX009 (ip), vehicle: saline with Tween-80
[6] = dose: 50.0 mg/kg/injection, schedule: Q01DX009 (ip), vehicle: saline
[7] = dose: 200.0 mg/kg/injection, schedule: Q01DX009 (ip), vehicle: saline
[8] = dose: 50.0 mg/kg/injection, schedule: Q01DX009 (ip), vehicle: Klucel (hydroxypropylcellulose) (HPC)
[9] = dose: 12.5 mg/kg/injection, schedule: Q01DX009 (ip), vehicle: saline
[10] = dose: 25.0 mg/kg/injection, schedule: Q01DX009 (ip), vehicle: saline
[11] = dose: 60.0 mg/kg/injection, schedule: Q01DX005 (ip), vehicle: Klucel (hydroxypropylcellulose) (HPC)
[12] = dose: 120.0 mg/kg/injection, schedule: Q01DX005 (ip), vehicle: Klucel (hydroxypropylcellulose) (HPC)
[13] = dose: 50.0 mg/kg/injection, schedule: Q01DX005 (ip), vehicle: Klucel (hydroxypropylcellulose) (HPC)
[14] = dose: 100.0 mg/kg/injection, schedule: Q01DX005 (ip), vehicle: Klucel (hydroxypropylcellulose) (HPC)
[15] = dose: 200.0 mg/kg/injection, schedule: Q01DX005 (ip), vehicle: Klucel (hydroxypropylcellulose) (HPC)
[16] = dose: 3.12 mg/kg/injection, schedule: Q01DX009 (ip), vehicle: saline with Tween-80
[17] = dose: 6.25 mg/kg/injection, schedule: Q01DX009 (ip), vehicle: saline with Tween-80
[18] = dose: 12.5 mg/kg/injection, schedule: Q01DX009 (ip), vehicle: saline with Tween-80
[19] = dose: 50.0 mg/kg/injection, schedule: Q01DX005 (ip), vehicle: saline with Tween-80
[20] = dose: 50.0 mg/kg/injection, schedule: Q01DX005 (ip), vehicle: saline

CC1NC(=O)C(C(C)C)NC(=O)C2=CN(Cc3ccccc3)C=CC2NC(=O)C(C)NC(=O)C(C(C)C)NC(=O)C2=CN(Cc3ccccc3)C=CC2NC1=O (stereo not given) (cyclo([X21]VA[X21]VA); configuration not given here)
T/C [1]: 94 % of control
T/C [2]: 93 % of control

Cc1c(-c2ccccc2)n(O)c(-c2ccccc2Cl)[n+]1[O-]
T/C [3]: 94 % of control
T/C [4]: 98 % of control
T/C [5]: 100 % of control

CCOc1ccc2nc(N=NC(C(C)=O)C(C)=O)sc2c1
T/C [6]: 90 % of control
T/C (dose: 100.0 mg/kg/injection, schedule: Q01DX009 (ip), vehicle: saline): 92 % of control
T/C [7]: 92 % of control

C=CCOC(=O)C12CCC(C)(C)CC1C1=CCC3C4(C)CCC(O)C(C)(CO)C4CCC3(C)C1(C)CC2 (stereo not given)
T/C (dose: 3.0 mg/kg/injection, schedule: Q01DX005 (ip), vehicle: saline with Tween-80): 111 % of control
T/C (dose: 6.0 mg/kg/injection, schedule: Q01DX005 (ip), vehicle: saline with Tween-80): 114 % of control
T/C (dose: 12.0 mg/kg/injection, schedule: Q01DX005 (ip), vehicle: saline with Tween-80): 100 % of control
T/C (dose: 12.5 mg/kg/injection, schedule: Q01DX005 (ip), vehicle: saline with Tween-80): 92 % of control

CCOC(=O)c1no[n+]([O-])c1C(=O)OCC
T/C (dose: 6.25 mg/kg/injection, schedule: Q01DX009 (ip), vehicle: Klucel (hydroxypropylcellulose) (HPC)): 103 % of control
T/C (dose: 12.5 mg/kg/injection, schedule: Q01DX009 (ip), vehicle: Klucel (hydroxypropylcellulose) (HPC)): 105 % of control
T/C (dose: 25.0 mg/kg/injection, schedule: Q01DX009 (ip), vehicle: Klucel (hydroxypropylcellulose) (HPC)): 101 % of control
T/C [8]: 86 % of control

COCC1(C)CCCC2(C)C3=C(CC=C(OC)C3)CCC12 (stereo not given)
T/C (dose: 100.0 mg/kg/injection, schedule: Q01DX001 (ip), vehicle: Klucel (hydroxypropylcellulose) (HPC)): 102 % of control
T/C (dose: 200.0 mg/kg/injection, schedule: Q01DX001 (ip), vehicle: Klucel (hydroxypropylcellulose) (HPC)): 94 % of control
T/C (dose: 400.0 mg/kg/injection, schedule: Q01DX001 (ip), vehicle: Klucel (hydroxypropylcellulose) (HPC)): 90 % of control

CC(CCCN)Nc1cc2c(c3cccnc13)OCCO2 (stereo not given)
T/C (dose: 6.25 mg/kg/injection, schedule: Q01DX009 (ip), vehicle: saline): 90 % of control
T/C [9]: 86 % of control
T/C [10]: 100 % of control

CS(=O)(=O)N1OC1c1ccccc1 (stereo not given)
T/C [11]: 95 % of control
T/C [12]: 100 % of control

O=S(=O)(N/N=C/c1ccncc1)c1ccccc1
T/C (dose: 12.5 mg/kg/injection, schedule: Q01DX009 (ip), vehicle: other): 110 % of control and 121 % of control
T/C (dose: 25.0 mg/kg/injection, schedule: Q01DX009 (ip), vehicle: other): 116 % of control
T/C (dose: 100.0 mg/kg/injection, schedule: Q01DX009 (ip), vehicle: other): 157 % of control

COc1ccc(Cc2cc3c(cc2OCC(=O)NN)OCO3)cc1
T/C [13]: 89 % of control
T/C [14]: 88 % of control
T/C [15]: 91 % of control

CC(=O)Oc1ccccc1
T/C (dose: 50.0 mg/kg/injection, schedule: Q04DX003 (ip), vehicle: saline with Tween-80): 103 % of control
T/C (dose: 100.0 mg/kg/injection, schedule: Q04DX003 (ip), vehicle: saline with Tween-80): 100 % of control

Cc1ccc(N2C(=O)C(C)SC2=S)cc1Cl (stereo not given)
T/C [9]: 100 % of control
T/C [10]: 100 % of control
T/C [6]: 101 % of control and 103 % of control
T/C [7]: 91 % of control

O=C1C=CC(=O)C2=C1CCCC2
T/C (dose: 2.0 mg/kg/injection, schedule: Q01DX009 (ip), vehicle: saline with Tween-80): 100 % of control
T/C (dose: 2.9 mg/kg/injection, schedule: Q01DX009 (ip), vehicle: saline with Tween-80): 100 % of control
T/C [16]: 100 % of control
T/C (dose: 4.5 mg/kg/injection, schedule: Q01DX009 (ip), vehicle: saline with Tween-80): 100 % of control
T/C [17]: 100 % of control
T/C (dose: 6.5 mg/kg/injection, schedule: Q01DX009 (ip), vehicle: saline with Tween-80): 100 % of control
T/C [18]: 102 % of control

COc1ccccc1C1OC2=C(Nc3ccc([N+](=O)[O-])cc3N2)C1=O (stereo not given)
T/C (dose: 30.0 mg/kg/injection, schedule: Q01DX005 (ip), vehicle: Klucel (hydroxypropylcellulose) (HPC)): 93 % of control
T/C [11]: 92 % of control
T/C [12]: 92 % of control and 96 % of control

c1ccc(-c2nsc3ccccc23)cc1
T/C [13]: 99 % of control
T/C [14]: 106 % of control
T/C [15]: 101 % of control

CP(C)(=S)[S][Sn]([CH3])([CH3])[S]P(C)(C)=S
T/C (dose: 6.25 mg/kg/injection, schedule: Q01DX005 (ip), vehicle: Klucel (hydroxypropylcellulose) (HPC)): 109 % of control and 113 % of control
T/C (dose: 12.5 mg/kg/injection, schedule: Q01DX005 (ip), vehicle: Klucel (hydroxypropylcellulose) (HPC)): 108 % of control and 115 % of control and 117 % of control
T/C (dose: 25.0 mg/kg/injection, schedule: Q01DX005 (ip), vehicle: Klucel (hydroxypropylcellulose) (HPC)): 105 % of control and 106 % of control and 122 % of control

CN1[C@@H]2CC[C@H]1CC(O)(c1ccccc1)C2 (stereo not given in full)
T/C (dose: 12.5 mg/kg/injection, schedule: Q01DX005 (ip), vehicle: saline): 94 % of control
T/C (dose: 25.0 mg/kg/injection, schedule: Q01DX005 (ip), vehicle: saline): 96 % of control
T/C [19]: 99 % of control
T/C [20]: 92 % of control

CN(C)c1cc(=O)c2c(ccc3ccccc32)o1
T/C [3]: 92 % of control
T/C [4]: 95 % of control
T/C [5]: 95 % of control

Cc1ccc(C(C(C)[N+](=O)[O-])C(C(=O)c2ccccc2)S(=O)(=O)c2ccccc2)cc1 (stereo not given)
T/C [13]: 93 % of control
T/C [14]: 106 % of control and 91 % of control
T/C [15]: 106 % of control and 89 % of control

COC(=O)C1=C(C(=O)OC)C2OC1C(COC(=O)NC1CCCCC1)=C2COC(=O)NC1CCCCC1
T/C (dose: 12.5 mg/kg/injection, schedule: Q01DX009 (ip), vehicle: distilled water + Tween-80): 89 % of control
T/C (dose: 25.0 mg/kg/injection, schedule: Q01DX009 (ip), vehicle: distilled water + Tween-80): 87 % of control
T/C (dose: 50.0 mg/kg/injection, schedule: Q01DX009 (ip), vehicle: distilled water + Tween-80): 89 % of control
T/C (dose: 100.0 mg/kg/injection, schedule: Q01DX009 (ip), vehicle: distilled water + Tween-80): 87 % of control
T/C (dose: 200.0 mg/kg/injection, schedule: Q01DX009 (ip), vehicle: distilled water + Tween-80): 101 % of control

O=S(=O)(c1cc(Cl)ccc1Cl)N(CCCCCN(S(=O)(=O)c1cc(Cl)ccc1Cl)S(=O)(=O)c1cc(Cl)ccc1Cl)S(=O)(=O)c1cc(Cl)ccc1Cl
T/C [1]: 99 % of control
T/C [2]: 96 % of control
T/C (dose: 240.0 mg/kg/injection, schedule: Q01DX005 (ip), vehicle: saline with Tween-80): 95 % of control

CCCCCCCCCCCC(=O)/C=C/c1ccccc1
T/C [8]: 102 % of control
T/C (dose: 100.0 mg/kg/injection, schedule: Q01DX009 (ip), vehicle: Klucel (hydroxypropylcellulose) (HPC)): 93 % of control
T/C (dose: 200.0 mg/kg/injection, schedule: Q01DX009 (ip), vehicle: Klucel (hydroxypropylcellulose) (HPC)): 94 % of control

CC1(C(=O)O)CCC2(C)CCC3(C)C(=CC(=O)C4C5(C)CCC(OC6OC(C(=O)O)C(O)C(O)C6OC6OC(C(=O)O)C(O)C(O)C6O)C(C)(C)C5CCC43C)C2C1 (stereo not given)
T/C [20]: 99 % of control
T/C (dose: 100.0 mg/kg/injection, schedule: Q01DX005 (ip), vehicle: saline): 97 % of control
T/C (dose: 200.0 mg/kg/injection, schedule: Q01DX005 (ip), vehicle: saline): 103 % of control

O=[N+]([O-])c1ccc(/C=C/S(=O)(=O)Cc2ccccc2)cc1
T/C [19]: 105 % of control
T/C (dose: 100.0 mg/kg/injection, schedule: Q01DX005 (ip), vehicle: saline with Tween-80): 100 % of control
T/C (dose: 200.0 mg/kg/injection, schedule: Q01DX005 (ip), vehicle: saline with Tween-80): 96 % of control

CC(C)[c-]1[c-][c-][c-][c-]1.CC(C)[c-]1[c-][c-][c-][c-]1.[Cl][Zr][Cl]
T/C [16]: 112 % of control
T/C [17]: 119 % of control
T/C [18]: 117 % of control

N#C/C(=C1/NC(=O)c2ccccc21)c1nc2ccccc2s1
T/C [3]: 89 % of control
T/C [4]: 90 % of control
T/C [5]: 96 % of control
